In patent US11896582B2, “Use and composition for treating myasthenia gravis and other myasthenic syndromes” (priority 2017, dated 2024):
Several values for one entry are separate records, joined by “and”; a condition that tells them apart may be missing. Identical values can stand only once.

Tested on: human subjects
Assay: Phase I single-blind study: single increasing oral doses of pyridostigmine bromide with or without ondansetron, gastro-intestinal tolerability
Type: in vivo
Details: healthy volunteers, one value per subject; for FID-1 Dose Limiting Adverse Event: pyridostigmine alone, oral
Method: A Phase I study was conducted in human subjects receiving a single oral dose of pyridostigmine bromide with or without a single oral dose of ondansetron hydrochloride dihydrate (“ondansetron”), as a representative 5HT3-antagonist. The study was a single center, single-blind study.
Following enrollment in the study, participants received single increasing oral doses of pyridostigmine, given once daily in the morning. The starting dose of pyridostigmine was 30 mg and the dose was increased daily by 30 mg increments. Once a subject had reached his/her first intolerable dose (“FID-1”), upward dose escalation was discontinued. FID was defined as: • (a) One (1) episode of vomiting, or • (b) Two (2) episodes of retching, or • (c) One (1) episode of severe nausea (Grade 3; defined as nausea interfering with activities of daily living or inadequate oral caloric or fluid intake; tube feeding, total parenteral nutrition or hospitalization indicated) lasting more than 1 hour, or • (d) Three (3) consecutive episodes at every 4-hour ratings of moderate nausea (Grade 2; defined as subjectively symptomatic, but not interfering with activities of daily living), or • (e) One (1) episode of moderate diarrhea (Grade 2; defined as 4-6 stools more than at baseline).
When a subject reached FID-1 on pyridostigmine alone, the subject was washed out for 2 to 7 days, and then received single daily doses of pyridostigmine starting at 30 mg and titrated upward by 30 mg increments, together with oral ondansetron hydrochloride dihydrate (10 mg, equivalent to 8 mg ondansetron base) until subjects again reached an intolerable dose (FID-2).
On each study day, subjects were followed up for up to 8 hours following drug administration for AEs, vital signs, ECGs. In addition, a laboratory panel was taken at screening and at the end of the study.

CN(C)C(=O)Oc1ccc[n+](C)c1 [Pyridostigmine, Pyridostigmine bromide]
FID-1 (Pyridostigmine alone) (first intolerable dose, single oral daily doses from 30 mg, raised by 30 mg increments): 60 mg (2×) and 90 mg
MTD-1 (Pyridostigmine alone) (maximum tolerated single oral dose): 30 mg and 60 mg
FID-1 Dose Limiting Adverse Event: Vomiting
FID-1 Dose Limiting Adverse Event (listed as pyridostigmine): vomiting
